Measurements from patent US9884806B2, “Cyclic vinylogous amides as bromodomain inhibitors” (ICAHN SCHOOL OF MEDICINE AT MOUNT SINAI, priority 2013, dated 2018).

Key:
[1] = biological target: T1, first bromodomain (BrD1) of human BRD4 (Homo sapiens, UniProt O60885); test: Fluorescence anisotropy binding assay (competition with FITC-labeled MS417 probe); conditions: FITC-MS417 probe 80 nM, PBS pH 7.4, 1 hour, 25° C., read-out: BRD4_1 IC50
T1 construct: the first bromodomain (BrD1) of human BRD4; poly-His (cleaved yes); made in house
Summary of the method: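 Competitive fluorescence anisotropy in PBS pH 7.4: 80 nM FITC-MS417 probe, 0.25 to 1 μM tag-cleaved BrD1, titrated unlabeled ligand, 1 hour at 25° C. IC50 values were fitted and converted to Ki using a corrected Cheng-Prusoff equation assuming one-site competition.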

BRD4_2 = biological target: T2, BRD4_2 (Homo sapiens, UniProt O60885); test: Fluorescence anisotropy binding assay (competition with FITC-labeled MS417 probe), BRD4_2; conditions: FITC-MS417 probe 80 nM, PBS pH 7.4, 1 hour, 25° C.
T2 construct: contains two tandem bromodomains (BrD1 and BrD2)

Structure (SMILES) | IC50 [1] [µM] | melting point | IC50 (BRD4_2) [µM]
COC(=O)c1ccc(Cl)cc1NC1=C(C)C(=O)CC1 [Example 01-24, methyl 4-chloro-2-((2-methyl-3-oxocyclopent-1-en-1-yl)amino)benzoate] | 1 to 10 | 167 to 170 °C | > 10
CC1=C(Nc2cccc(Cl)c2C(=O)O)CCC1=O [Example 01-23, 2-chloro-6((2-methyl-3-oxocyclopent-1-en-1-yl)amino)benzoic acid] | > 10 | 277 to 280 °C | > 10
CC1=C(Nc2ccc(C(=O)O)c(C)c2)CCC1=O [Example 01-16, 2-methyl-4-((2-methyl-3-oxocyclopent-1-en-1-yl)amino)benzoic acid] | > 10 | 213 to 216 °C | > 10
CC1=C(Nc2ccc3cnccc3c2)CCCC1=O [Example 01-55, 3-[(isoquinolin-6-yl)amino]-2-methylcyclohex-2-en-1-one] | 1 to 10 | 163 to 165 °C | 1 to 10
CC1=C(Nc2ccc3ccncc3c2)CCCC1=O [Example 01-56, 3-[(isoquinolin-7-yl)amino]-2-methylcyclohex-2-en-1-one] | 1 to 10 | 145 to 147 °C | > 10
CC1=C(Nc2cc(C(=O)O)ccc2Br)CCCC1=O [Example 01-48, 4-bromo-3((2-methyl-3-oxocyclohex-1-en-1-yl)amino)benzoic acid] | 1 to 10 | 265 to 267 °C | > 10
COC(=O)c1ccc(NC2=C(C)C(=O)CC2)c(F)c1 [Example 01-21, methyl 3-fluoro-4((2-methyl-3-oxocyclopent-1-en-1-yl)amino)benzoate] | 1 to 10 | 198 to 201 °C | > 10
CC1=C(Nc2ccccn2)CCC1=O [Example 01-28, 2-methyl-3-(pyridin-2-ylamino)cyclopent-2-enone] | > 10 | 163 to 165 °C | > 10
CC1=C(Nc2ccncc2Cl)CCCC1=O [Example 01-51, 3-[(3-chloropyridin-4-yl)amino]-2-methylcyclohex-2-en-1-one] | 1 to 10 | 135 to 138 °C | > 10
CC1=C(Nc2cccc(NCCc3ccccc3C)c2Cl)CCCC1=O [Example 05-79, 3-((2-chloro-3-((2-methylphenethyl)amino)phenyl)amino)-2-methylcyclohex-2-enone] | 1 to 10 | 157 to 160 °C | > 10
CC1=C(Nc2cccc(N)c2Cl)CCC1=O [Example 02-13, 3-((3-amino-2-chlorophenyl)amino)-2-methylcyclopent-2-enone] | 1 to 10 | 223 to 225 °C | 1 to 10
CC1=C(Nc2ccc(C(N)=O)cc2)CCCC1=O [Example 01-35, 4((2-methyl-3-oxocyclohex-1-en-1-yl)amino)benzamide] | 1 to 10 | 221 to 223 °C | 1 to 10
CC1=C(Nc2nccnc2Cl)CCCC1=O [Example 01-50, 3-[(3-chloropyrazin-2-yl)amino]-2-methylcyclohex-2-en-1-one] | > 10 | 116 to 118 °C | > 10
CC1=C(Nc2ccc(NC(=O)/C=C\C(=O)O)cc2Cl)CCCC1=O [Example 05-84, (Z)-4-((3-chloro-4-((2-methyl-3-oxocyclohex-1-en-1-yl)amino)phenyl)-amino)-4-oxobut-2-enoic acid] | 1 to 10 | 200 to 202 °C | > 10
COC(=O)c1ccc(NC2=C(C)C(=O)CC2)cc1OC [Example 01-13, methyl 2-methoxy-4-((2-methyl-3-oxocyclopent-1-en-1-yl)amino)benzoate] | 1 to 10 | 193 to 196 °C | 1 to 10

The remaining lines, values ahead:

IC50 [1] [µM] | melting point | IC50 (BRD4_2) [µM] | Structure (SMILES)
1 to 10 | 233 to 236 °C | 1 to 10 | CC1=C(Nc2ccc(C(=O)O)cc2C)CCC1=O [Example 01-14, 3-methyl-4-((2-methyl-3-oxocyclopent-1-en-1-yl)amino)benzoic acid]
1 to 10 | 231 to 234 °C | 1 to 10 | COc1cc(C(=O)O)ccc1NC1=C(C)C(=O)CC1 [Example 01-12, 3-methoxy-4-((2-methyl-3-oxocyclopent-1-en-1-yl)amino)benzoic acid]
< 1 | 230 to 232 °C | 1 to 10 | CC1=C(Nc2ccc(NS(=O)(=O)C3CCCCC3)cc2Cl)CCCC1=O [Example 05-69, N-(3-chloro-4-((2-methyl-3-oxocyclohex-1-en-1-yl)amino)phenyl)-cyclohexanesulfonamide]
< 1 | 215 to 217 °C | < 1 | CC1=C(Nc2cc(NS(=O)(=O)C3CCCCC3)ccc2Cl)CCCC1=O [Example 05-67, N-(4-chloro-3-((2-methyl-3-oxocyclohex-1-en-1-yl)amino)phenyl)-cyclohexanesulfonamide]
< 1 | 165 to 168 °C | 1 to 10 | CC1=C(Nc2cc(Nc3ccccc3C)ccc2Cl)CCCC1=O [Example 05-81, 3-((2-chloro-5-(o-tolylamino)phenyl)amino)-2-methylcyclohex-2-enone]
< 1 | 240 to 242 °C | 1 to 10 | CC1=C(Nc2cc(NC(=O)C3CCCCC3)ccc2Cl)CCC1=O [Example 05-39, N-(4-chloro-3-[(2-methyl-3-oxocyclopent-1-en-1-yl)amino]phenyl)-cyclohexanecarboxamide]
< 1 | 198 to 200 °C | < 1 | COc1ccccc1S(=O)(=O)Nc1ccc(Cl)c(NC2=C(C)C(=O)CC2)c1 [Example 05-60, N-(4-chloro-3-((2-methyl-3-oxocyclopent-1-en-1-yl)amino)phenyl)-2-methoxybenzenesulfonamide]
< 1 | 280 to 283 °C | 1 to 10 | CC1=C(Nc2ccc(NC(=O)c3ccccc3C)cc2Cl)CCC1=O [Example 05-41, N-(3-chloro-4-((2-methyl-3-oxocyclopent-1-en-1-yl)amino)phenyl)-2-methylbenzamide]
< 1 | 245 to 247 °C | 1 to 10 | CC1=C(Nc2cc(NC(=O)c3cccc4ccccc34)ccc2Cl)CCCC1=O [Example 05-46, N-(4-chloro-3-((2-methyl-3-oxocyclohex-1-en-1-yl)amino)phenyl)-1-naphthamide]
< 1 | 254 to 257 °C | > 10 | COc1ccc(C(=O)Nc2ccc(Cl)c(NC3=C(C)C(=O)CC3)c2)cc1 [Example 05-37, N-(4-chloro-3-((2-methyl-3-oxocyclopent-1-en-1-yl)amino)phenyl)-4-methoxybenzamide]
< 1 | 178 to 180 °C | 1 to 10 | CC1=C(Nc2cccc(NC(=O)c3cccc4ccccc34)c2Cl)CCCC1=O [Example 05-52, N-(2-chloro-3-((2-methyl-3-oxocyclohex-1-en-1-yl)amino)phenyl)-1-naphthamide]
< 1 | 249 to 250 °C (dec.) | 1 to 10 | CC1=C(Nc2cc(C(=O)Nc3ccccc3C)c3ccccc3c2)CCCC1=O [Example 04-106, 3-((2-methyl-3-oxocyclohex-1-en-1-yl)amino)-N-(o-tolyl)-1-naphthamide]
< 1 | 272 to 275 °C (dec.) | 1 to 10 | CC1=C(Nc2ccc3cc(C(=O)O)ccc3c2Cl)CCCC1=O [Example 01-53, 5-chloro-6-[(2-methyl-3-oxocyclohex-1-en-1-yl)amino]naphthalene-2-carboxylic acid]
< 1 | 248 to 250 °C | 1 to 10 | CC1=C(Nc2ccc(NC(=O)C3CCCCC3)cc2Cl)CCCC1=O [Example 05-49, N-(3-chloro-4-((2-methyl-3-oxocyclohex-1-en-1-yl)amino)phenyl)-cyclohexanecarboxamide]
< 1 | 103 to 105 °C | < 1 | CC1=C(Nc2cc(NCc3ccccc3F)ccc2Cl)CCCC1=O [Example 05-74, 3-((2-chloro-5-((2-fluorobenzyl)amino)phenyl)amino)-2-methylcyclohex-2-enone]
< 1 | 78 to 80 °C | < 1 | CC1=C(Nc2cc(NS(=O)(=O)N3CCCCC3)ccc2Cl)CCC1=O [Example 05-61, N-(4-chloro-3-((2-methyl-3-oxocyclopent-1-en-1-yl)amino)phenyl)-piperidine-1-sulfonamide]
< 1 | 243 to 245 °C | < 1 | CC1=C(Nc2cc(NC(=O)c3cccc4ccccc34)ccc2Cl)CCC1=O [Example 05-40, N-(4-chloro-3-[(2-methyl-3-oxocyclopent-1-en-1-yl)amino]phenyl)-naphthalene-1-carboxamide]
< 1 | 215 to 217 °C | < 1 | CC1=C(Nc2cc(NS(=O)(=O)c3ccccc3F)ccc2Cl)CCC1=O [Example 05-58, N-(4-chloro-3-((2-methyl-3-oxocyclopent-1-en-1-yl)amino)phenyl)-2-fluorobenzenesulfonamide]
< 1 | 227 to 230 °C | 1 to 10 | CC1=C(Nc2ccc3cc[nH]c3c2)CCCC1=O [Example 01-62, 3-[(1H-indol-6-yl)amino]-2-methylcyclohex-2-en-1-one]
